In this test the test system is TDP-43 aggregation. As to the kind of experiment: TDP-43 aggregation assay in SY5Y TDP-43WT cells (high content imaging). Type of test: cell-based. The note with it: Homo sapiens, tetracycline induction 24 hrs, 1 hour compound pre-treatment, sodium arsenite 23 hrs, 8-point dose curve, percentage of cells with TDP-43 aggregates, read-out: IC50, Inhibition of TDP-43 Aggregation. The protocol: Exemplary compounds disclosed herein were evaluated for efficacy in inhibiting TDP-43 inclusions cellular imaging-based assays.
The cellular model was in human neuroblastoma SH SYSY cells (ATCC, cat #: CRL-2266). The parent cell line was first engineered to stably express a tetracycline repressor protein (designated as TREx-SY5Y cells, customer cell line development by ThermoFisher). Wild-type human TDP-43 with a C-terminus eGFP tag was synthesized and cloned into pcDNA5/TO expression vector (ThermoFisher). The plasmid was transfected into TREx-SY5Y cells using Lipofectamine 2000 and hygromycin resistant colonies were selected. Expression of TDP-43WT::eGFP was examined under fluorescent microscopy and Western blot upon tetracycline induction. The clone that was used for TDP-43 aggregation assay is referred to as SY5Y TDP-43WT cells hereafter.
Compound inhibition of TDP-43 aggregation was tested in an 8-point dose curve in 96-well format. Briefly, TDP-43WT::eGFP expression was induced with […] for 24 hrs (SY5Y TDP-43WT cells). The cells were then pre-treated for 1 hour with exemplary compounds before adding sodium arsenite to a final concentration of […] and incubated for another 23 hrs. At the end of the treatment the cell monolayers were washed in PBS and fixed in 4% paraformaldehyde (PFA), diluted from 16% stock (Electron Microscopy Sciences cat: #15710-S). The inhibitory effect on TDP-43 aggregation was measured using CellInsight CX7 high content imager (ThermoFisher). The percentage of cells with TDP-43 aggregates was calculated based on the total number of cells identified by DAPI staining. An 8-point dose response curve was generated, and the IC50 for each compound tested was determined (Table 3).
In Table 3 below, A indicates an IC50 (nM)<500 nM, B indicates an IC50 (nM) 500 nM to <1000 nM, C indicates an IC50 (nM) 1000 nM to <2000 nM, D indicates an IC50 (nM) 2000 nM to <6000 nM, and E indicates an IC50 (nM) 6000 nM to ≤10000 nM.
One may read the IC50 as the concentration at which inhibition is half-maximal. With `Cc1cc(-c2ccc3c(c2)CCCC3N(C)C)sc1C(=O)N1CC[C@H](N)C1` (stereo partly drawn) [Compound 186, ((S)-3-aminopyrrolidin-1-yl)(5-(5-(dimethylamino)-5,6,7,8-tetrahydronaphthalen-2-yl)-3-methylthiophen-2-yl)methanone], the IC50 is 2 to 6 µM.

Turning to `Cc1cc(-c2ccc(C3CCN(C4CNC4)CC3)cc2)sc1C(=O)N1CC[C@H](N)C1` [Compound 174, (S)-(3-aminopyrrolidin-1-yl)(5-(4-(1-(azetidin-3-yl)piperidin-4-yl)phenyl)-3-methylthiophen-2-yl)methanone], the half-maximal inhibitory concentration (IC50) was in the range of 1 to 2 µM.

As for `COc1cc(C2CCN(C3CCOCC3)CC2)ccc1-c1cc(C)c(C(=O)N2CC[C@H](N)C2)s1` [Compound 259, (S)-(3-aminopyrrolidin-1-yl)(5-(2-methoxy-4-(1-(tetrahydro-2H-pyran-4-yl)piperidin-4-yl)phenyl)-3-methylthiophen-2-yl)methanone], the IC50 was 2 to 6 µM.

On to `Cc1cc(-c2ccc(N3CCN(C4COC4)CC3)cc2)sc1C(=O)N1CC[C@H](N)C1` [Compound 154, (S)-(3-aminopyrrolidin-1-yl)(3-methyl-5-(4-(4-(oxetan-3-yl)piperazin-1-yl)phenyl)thiophen-2-yl)methanone], for which the IC50 lay in the range of 0.5 to 1 µM.

For the molecule `Cc1cc(-c2ccc(C(C)(C)N(C)C)cc2)sc1C(=O)N1CC[C@H](N)C1` [Compound 190, (S)-(3-aminopyrrolidin-1-yl)(5-(4-(2-(dimethylamino)propan-2-yl)phenyl)-3-methylthiophen-2-yl)methanone], the IC50 was less than 0.5 µM.

For the molecule `Cc1cc(-c2ccc(COc3ccccc3)cc2)sc1C(=O)N1CC[C@H](N)C1` [Compound 204, (S)-(3-aminopyrrolidin-1-yl){3-methyl-5-[4-(phenoxymethyl)phenyl]thiophen-2-yl}methanone], the 50% inhibitory concentration (IC50) was 6 to 10 µM.

Take `Cc1cc(-c2ccc3c(c2)OCCC3)sc1C(=O)N1CC[C@H](N)C1` [Compound 194, (S)-(3-aminopyrrolidin-1-yl)(5-(chroman-7-yl)-3-methylthiophen-2-yl)methanone]: the IC50 is 0.5 to 1 µM.

Regarding `COc1cc(-c2cc(C)c(C(=O)N3CC[C@H](N)C3)s2)ccc1C1CCN(C2CCOCC2)CC1` [Compound 260, (S)-(3-aminopyrrolidin-1-yl)(5-(3-methoxy-4-(1-(tetrahydro-2H-pyran-4-yl)piperidin-4-yl)phenyl)-3-methylthiophen-2-yl)methanone], the half-maximal inhibitory concentration (IC50) was in the range of 1 to 2 µM.

Take `N[C@H]1CCN(C(=O)c2sc(-c3ccc(C4CCN(C5COC5)CC4)c(F)c3)cc2Cl)C1` [Compound 265, (S)-(3-aminopyrrolidin-1-yl)(3-chloro-5-(3-fluoro-4-(1-(oxetan-3-yl)piperidin-4-yl)phenyl)thiophen-2-yl)methanone]: the half-maximal inhibitory concentration (IC50) is less than 0.5 µM.

As for `Cc1cc(-c2ccc(C3CCN(C4CSC4)CC3)cc2)sc1C(=O)N1CC[C@H](N)C1` [Compound 172, (S)-(3-aminopyrrolidin-1-yl){3-methyl-5-[4-(1-thietan-3-ylpiperidin-4-yl)phenyl]thiophen-2-yl} methanone], the IC50 is less than 0.5 µM.

As to `Cc1cc(-c2ccc(C(C)C)cc2)sc1C(=O)N1CC[C@H](N)C1` [Compound 230], the half-inhibitory concentration (IC50) was 2 to 6 µM.

Consider `COC(C)CN1CCC(c2ccc(-c3cc(C)c(C(=O)N4CC[C@H](N)C4)s3)cc2F)CC1` (stereo partly drawn) [Compound 251, ((S)-3-aminopyrrolidin-1-yl)(5-(3-fluoro-4-(1-(2-methoxypropyl)piperidin-4-yl)phenyl)-3-methylthiophen-2-yl)methanone], for which the half-maximal inhibitory concentration (IC50) was less than 0.5 µM.

For `Cc1cc(-c2ccc3c(c2)NCCC3)sc1C(=O)N1CC[C@H](N)C1` [Compound 197, (S)-(3-aminopyrrolidin-1-yl)(3-methyl-5-(1,2,3,4-tetrahydroquinolin-7-yl)thiophen-2-yl)methanone], the IC50 lay within 1 to 2 µM.

Take `N[C@H]1CCN(C(=O)c2sc(-c3ccc(C4CCN(C5CCOC5)CC4)c(F)c3)cc2Cl)C1` (stereo partly drawn) [Compound 267, ((S)-3-aminopyrrolidin-1-yl)(3-chloro-5-(3-fluoro-4-(1-(tetrahydrofuran-3-yl)piperidin-4-yl)phenyl)thiophen-2-yl)methanone]: the IC50 was less than 0.5 µM.

Regarding `Cc1cc(-c2ccc(C3CCN(CC(C)(C)O)CC3)c(F)c2)sc1C(=O)N1CC[C@H](N)C1` [Compound 257, (S)-(3-aminopyrrolidin-1-yl)(5-(3-fluoro-4-(1-(2-hydroxy-2-methylpropyl)piperidin-4-yl)phenyl)-3-methylthiophen-2-yl)methanone], the half-inhibitory concentration (IC50) was less than 0.5 µM.

`CNCc1ccc(-c2cc(C)c(C(=O)N3CC[C@H](N)C3)s2)cc1` [Compound 218]: the IC50 was less than 0.5 µM.

`N[C@H]1CCN(C(=O)c2sc(-c3ccc(C4CCN(C5CCC5)CC4)c(F)c3)cc2Cl)C1` [Compound 271, (S)-(3-aminopyrrolidin-1-yl)(3-chloro-5-(4-(1-cyclobutylpiperidin-4-yl)-3-fluorophenyl)thiophen-2-yl)methanone]: the IC50 is less than 0.5 µM.

Turning to `CCc1ccc(-c2sc(C(=O)N3CC[C@H](N)C3)c(C)c2C)cc1` [Compound 233], the IC50 lay within 6 to 10 µM.

For the molecule `Cc1cc(-c2ccc(N3CCC(C)CC3)cc2)sc1C(=O)N1CC[C@H](N)C1` [Compound 184, (S)-(3-aminopyrrolidin-1-yl)(3-methyl-5-(4-(4-methylpiperidin-1-yl)phenyl)thiophen-2-yl)methanone], the IC50 was 2 to 6 µM.

On to `Cc1cc(-c2ccc3c(c2)CCCO3)sc1C(=O)N1CC[C@H](N)C1` [Compound 229], for which the half-inhibitory concentration (IC50) was 0.5 to 1 µM.

For the molecule `N[C@H]1CCN(C(=O)c2sc(-c3ccc(C4CCN(C5CCOCC5)CC4)c(Cl)c3)cc2Cl)C1` [Compound 273, (S)-(3-aminopyrrolidin-1-yl)(3-chloro-5-(3-chloro-4-(1-(tetrahydro-2H-pyran-4-yl)piperidin-4-yl)phenyl)thiophen-2-yl)methanone], the IC50 was less than 0.5 µM.

With `CN1CCC(c2ccc(-c3cc(Cl)c(C(=O)N4CC[C@H](N)C4)s3)cc2F)CC1` [Compound 280, (S)-(3-aminopyrrolidin-1-yl)(3-chloro-5-(3-fluoro-4-(1-methylpiperidin-4-yl)phenyl)thiophen-2-yl)methanone], the concentration for half-maximal inhibition (IC50) was less than 0.5 µM.

Regarding `N[C@H]1CCN(C(=O)c2sc(-c3ccc(C4CCN(C5CCOCC5)CC4)c(F)c3)cc2Cl)C1` [Compound 295, (S)-(3-aminopyrrolidin-1-yl)(3-chloro-5-(3-fluoro-4-(1-(tetrahydro-2H-pyran-4-yl)piperidin-4-yl)phenyl)thiophen-2-yl)methanone], the IC50 is less than 0.5 µM.

With `Cc1cnc(-c2cc(C)c(C(=O)N3CC[C@H](N)C3)s2)cn1` [Compound 223], the IC50 lay within 1 to 2 µM.

As for `COCCN1CCC(c2ccc(-c3cc(C)c(C(=O)N4CC[C@H](N)C4)s3)cc2F)CC1` [Compound 276, (S)-(3-aminopyrrolidin-1-yl)(5-(3-fluoro-4-(1-(2-methoxyethyl)piperidin-4-yl)phenyl)-3-methylthiophen-2-yl)methanone], the concentration for half-maximal inhibition (IC50) was less than 0.5 µM.

As for `Cc1cc(-c2ccc(N3CCN(C)CC3)cc2)sc1C(=O)N1CC[C@H](N)C1` [Compound 185, (S)-(3-aminopyrrolidin-1-yl)(3-methyl-5-(4-(4-methylpiperazin-1-yl)phenyl)thiophen-2-yl)methanone], the IC50 was less than 0.5 µM.

Take `CCN1CCC(c2ccc(-c3cc(Cl)c(C(=O)N4CC[C@H](N)C4)s3)cc2F)CC1` [Compound 266, (S)-(3-aminopyrrolidin-1-yl)(3-chloro-5-(4-(1-ethylpiperidin-4-yl)-3-fluorophenyl)thiophen-2-yl)methanone]: the concentration for half-maximal inhibition (IC50) is less than 0.5 µM.

Turning to `CCN1CCC(c2ccc(-c3cc(C)c(C(=O)N4CC[C@H](N)C4)s3)cc2F)CC1` [Compound 281, (S)-(3-aminopyrrolidin-1-yl)(5-(4-(1-ethylpiperidin-4-yl)-3-fluorophenyl)-3-methylthiophen-2-yl)methanone], the half-inhibitory concentration (IC50) was less than 0.5 µM.

Turning to `COc1cc(-c2ccc(C3CCN(C4CCOCC4)CC3)cc2)sc1C(=O)N1CC[C@H](N)C1` [Compound 293], the half-inhibitory concentration (IC50) was 0.5 to 1 µM.

Take `Cc1cc(-c2ccc(Cl)c(Cl)c2)sc1C(=O)N1CC[C@H](N)C1` [Compound 244]: the IC50 was 2 to 6 µM.

Turning to `Cc1cc(-c2ccc(C3CCN(C4CCCC4)CC3)c(F)c2)sc1C(=O)N1CC[C@H](N)C1` [Compound 278, (S)-(3-aminopyrrolidin-1-yl)(5-(4-(1-cyclopentylpiperidin-4-yl)-3-fluorophenyl)-3-methylthiophen-2-yl)methanone], the half-maximal inhibitory concentration (IC50) was less than 0.5 µM.

Consider `C#CCOCCN1CCC(c2ccc(-c3cc(C)c(C(=O)N4CC[C@H](N)C4)s3)cc2)CC1` [Compound 288, (S)-(3-amino-pyrrolidin-1-yl)(3-methyl-5-(4-(1-(2-(prop-2-yn-1-yloxy)ethyl)piperidin-4-yl)phenyl)thiophen-2-yl) methanone], for which the 50% inhibitory concentration (IC50) was less than 0.5 µM.

Source of the values: patent publication US20260258025A1, “INHIBITORS OF TDP-43 AND TAU AGGREGATION” (Aquinnah Pharmaceuticals, inc., priority 2023, published 2026).
